According to patent publication US9080214B2, “Genetic markers for efficacy of iloperidone in the treatment of psychotic symptoms” (Vanda Pharmaceuticals, Inc., priority 2007, dated 2015):

Tested on: individuals diagnosed with schizophrenia
Assay: Change in PANSS-T by SNP genotype, patients on iloperidone 24 mg/day b.i.d. for 28 days (MMRM, LOCF)
Format: in vivo, human
Text: Earlier studies investigated an association between a polymorphism in the CNTF gene and iloperidone efficacy as well as associations between CYP2D6 and KCNQ1 genotypes and changes in QT interval following the administration of iloperidone. The present study involved the genotyping of DNA samples collected from 426 individuals diagnosed with schizophrenia in an attempt to identify additional SNPs associated with iloperidone efficacy. Each sample was genotyped at more than 500,000 SNP loci using the GeneChip® Human Mapping 500K Array Set (Affymetrix, Santa Clara, Calif.) and using assays developed in-house. Approximately half of the participants in the study were administered 24 mg/day of iloperidone, b.i.d., for 28 days. About 25% of the patients were administered ziprasidone. The remaining participants were administered a placebo. Three analyses of the PANSS-T were conducted. 1) A two-step approach where samples were randomly split into 2 groups of iloperidone-treated patients used to discover SNPs associated with changed in PANSS-T (Discovery phase) and a second group to confirm the 100 most significant SNPs (Confirmatory phase). 2) A one-step approach using the Last Observation Carried Forward (LOCF) PANSS-T data of all iloperidone-treated patients. For each SNP, the most parsimonious genetic model (e.g., homozygous for one allele v. all other genotypes [i.e., AA v. AB and BB], heterozygous v. homozygous [i.e., AB v. AA and BB]) was established with respect to iloperidone efficacy using a one-way analysis of variance (ANOVA). 3) A Mixed-effects Model Repeated Measures (MMRM) analysis was subsequently conducted using the best genetic model of each SNP in the MMRM model. MMRM analyses were also conducted with the PANSS subscales PANSS-P, PANSS-N, and PANSS-GP. The SNPs with a statistically significant association in all 3 analyses of PANSS-T, as well as the best of each analysis were considered significant findings and are listed below in Table 1. Results for each of these SNPs with the PANSS-T scales and with the three subscales PANSS-P, PANSS-N, and PANSS-GP are shown in Tables 2, 3, 4, and 5, respectively. As used herein, “greater iloperidone efficacy” means an improvement in PANSS-T score of at least about 20%. In the current study, this means an improvement of at least 13 points.

`COc1cc(C(C)=O)ccc1OCCCN1CCC(c2noc3cc(F)ccc23)CC1` [iloperidone, 1-[4-[3-[4-(6-fluoro-1,2-benzisoxazol-3-yl)-1-piperidinyl]propoxy]-3-methoxyphenyl]ethanone] was tested, and the “mean of change in PANSS-T” value (SNP_A-1819750 (CREG1) genotype A_A) was −18.13, the “mean of change in PANSS-T” value (SNP_A-1819750 (CREG1) genotype A_B*) was −10.74 and the “mean of change in PANSS-T” value (SNP_A-1819750 (CREG1) genotype B_B) was −16.05. For the same molecule, the “mean of change in PANSS-T” value (SNP_A-1819750 (CREG1) genotype nonAB**) was −16.72, the “mean of change in PANSS-T” value (SNP_A-1860353 (RAP1B) genotype A_A**) was −37.40 and the “mean of change in PANSS-T” value (SNP_A-1860353 (RAP1B) genotype A_B) was −11.79. The “mean of change in PANSS-T” value (SNP_A-1860353 (RAP1B) genotype B_B) was −11.84, the “mean of change in PANSS-T” value (SNP_A-1860353 (RAP1B) genotype nonAA*) was −11.83 and the “mean of change in PANSS-T” value (SNP_A-1934663 genotype A_A) was −18.67. For the same molecule, the “mean of change in PANSS-T” value (SNP_A-1934663 genotype A_B) was −18.34, the “mean of change in PANSS-T” value (SNP_A-1934663 genotype B_B*) was −8.39 and the “mean of change in PANSS-T” value (SNP_A-1934663 genotype nonBB**) was −18.40. The “mean of change in PANSS-T” value (SNP_A-1973093 (KIAA0040) genotype A_A) was −14.99, the “mean of change in PANSS-T” value (SNP_A-1973093 (KIAA0040) genotype A_B*) was −6.21 and the “mean of change in PANSS-T” value (SNP_A-1973093 (KIAA0040) genotype B_B) was −16.73. For the same molecule, the “mean of change in PANSS-T” value (SNP_A-1973093 (KIAA0040) genotype nonAB**) was −16.39, the “mean of change in PANSS-T” value (SNP_A-1975928 (SLC2A9) genotype A_A) was −13.09 and the “mean of change in PANSS-T” value (SNP_A-1975928 (SLC2A9) genotype A_B) was −13.17. For the same molecule, the “mean of change in PANSS-T” value (SNP_A-1975928 (SLC2A9) genotype B_B*) was 16.38, the “mean of change in PANSS-T” value (SNP_A-1975928 (SLC2A9) genotype nonBB**) was −13.11 and the “mean of change in PANSS-T” value (SNP_A-1987915 (GPR126) genotype A_A) was −9.87. The “mean of change in PANSS-T” value (SNP_A-1987915 (GPR126) genotype A_B) was −9.61, the “mean of change in PANSS-T” value (SNP_A-1987915 (GPR126) genotype B_B**) was −17.29 and the “mean of change in PANSS-T” value (SNP_A-1987915 (GPR126) genotype nonBB*) was −9.67. The “mean of change in PANSS-T” value (SNP_A-2007721 (LOC58486) genotype A_A) was −4.55, the “mean of change in PANSS-T” value (SNP_A-2007721 (LOC58486) genotype A_B**) was −22.64 and the “mean of change in PANSS-T” value (SNP_A-2007721 (LOC58486) genotype B_B) was −9.55. The “mean of change in PANSS-T” value (SNP_A-2007721 (LOC58486) genotype nonAB*) was −9.52, the “mean of change in PANSS-T” value (SNP_A-2044214 (HNT) genotype A_A) was −15.71 and the “mean of change in PANSS-T” value (SNP_A-2044214 (HNT) genotype A_B*) was −7.43. For the same molecule, the “mean of change in PANSS-T” value (SNP_A-2044214 (HNT) genotype B_B) was −14.43, the “mean of change in PANSS-T” value (SNP_A-2044214 (HNT) genotype nonAB**) was −15.26 and the “mean of change in PANSS-T” value (SNP_A-2048427 (NPAS3) genotype A_A) was −19.94. For the same molecule, the “mean of change in PANSS-T” value (SNP_A-2048427 (NPAS3) genotype A_B) was −20.15, the “mean of change in PANSS-T” value (SNP_A-2048427 (NPAS3) genotype B_B*) was −9.20 and the “mean of change in PANSS-T” value (SNP_A-2048427 (NPAS3) genotype nonBB**) was −20.12. The “mean of change in PANSS-T” value (SNP_A-2070454 (NKX2-5) genotype A_A) was −9.88, the “mean of change in PANSS-T” value (SNP_A-2070454 (NKX2-5) genotype A_B) was −10.39 and the “mean of change in PANSS-T” value (SNP_A-2070454 (NKX2-5) genotype B_B**) was −18.31. For the same molecule, the “mean of change in PANSS-T” value (SNP_A-2070454 (NKX2-5) genotype nonBB*) was −10.23, the “mean of change in PANSS-T” value (SNP_A-2076797 (NUDT9P1) genotype A_A) was −7.14 and the “mean of change in PANSS-T” value (SNP_A-2076797 (NUDT9P1) genotype A_B**) was −18.73. For the same molecule, the “mean of change in PANSS-T” value (SNP_A-2076797 (NUDT9P1) genotype B_B) was −6.04, the “mean of change in PANSS-T” value (SNP_A-2076797 (NUDT9P1) genotype nonAB*) was −6.61 and the “mean of change in PANSS-T” value (SNP_A-2103099 (HTR1A) genotype A_A) was −17.43. The “mean of change in PANSS-T” value (SNP_A-2103099 (HTR1A) genotype A_B*) was −8.31, the “mean of change in PANSS-T” value (SNP_A-2103099 (HTR1A) genotype B_B) was −16.12 and the “mean of change in PANSS-T” value (SNP_A-2103099 (HTR1A) genotype nonAB**) was −16.60. The “mean of change in PANSS-T” value (SNP_A-2120958 genotype A_A) was −13.95, the “mean of change in PANSS-T” value (SNP_A-2120958 genotype A_B) was −13.71 and the “mean of change in PANSS-T” value (SNP_A-2120958 genotype B_B*) was 2.48. The “mean of change in PANSS-T” value (SNP_A-2120958 genotype nonBB**) was −13.85, the “mean of change in PANSS-T” value (SNP_A-2170121 (C6) genotype A_A) was −8.94 and the “mean of change in PANSS-T” value (SNP_A-2170121 (C6) genotype A_B**) was −21.93. The “mean of change in PANSS-T” value (SNP_A-2170121 (C6) genotype B_B) was −11.50, the “mean of change in PANSS-T” value (SNP_A-2170121 (C6) genotype nonAB*) was −9.17 and the “mean of change in PANSS-T” value (SNP_A-2274533 (LZTS1) genotype A_A**) was −15.95. For the same molecule, the “mean of change in PANSS-T” value (SNP_A-2274533 (LZTS1) genotype A_B) was −6.04, the “mean of change in PANSS-T” value (SNP_A-2274533 (LZTS1) genotype B_B) was −6.21 and the “mean of change in PANSS-T” value (SNP_A-2274533 (LZTS1) genotype nonAA*) was −6.08. For the same molecule, the “mean of change in PANSS-T” value (SNP_A-2283283 (XKR4) genotype A_A*) was −3.30, the “mean of change in PANSS-T” value (SNP_A-2283283 (XKR4) genotype A_B) was −14.57 and the “mean of change in PANSS-T” value (SNP_A-2283283 (XKR4) genotype B_B) was −15.66. The “mean of change in PANSS-T” value (SNP_A-2283283 (XKR4) genotype nonAA**) was −15.02, the “mean of change in PANSS-T” value (SNP_A-2284243 (GRIA4) genotype A_A) was −15.30 and the “mean of change in PANSS-T” value (SNP_A-2284243 (GRIA4) genotype A_B) was −15.17. The “mean of change in PANSS-T” value (SNP_A-2284243 (GRIA4) genotype B_B*) was −3.30, the “mean of change in PANSS-T” value (SNP_A-2284243 (GRIA4) genotype nonBB**) was −15.22 and the “mean of change in PANSS-T” value (SNP_A-4204396 (CDH13) genotype A_A) was −13.72. For the same molecule, the “mean of change in PANSS-T” value (SNP_A-4204396 (CDH13) genotype A_B) was −14.04, the “mean of change in PANSS-T” value (SNP_A-4204396 (CDH13) genotype B_B*) was 4.89 and the “mean of change in PANSS-T” value (SNP_A-4204396 (CDH13) genotype nonBB**) was −13.84. The “mean of change in PANSS-T” value (SNP_A-4212785 (PPP1R3B) genotype A_A*) was 25.90, the “mean of change in PANSS-T” value (SNP_A-4212785 (PPP1R3B) genotype A_B) was −13.66 and the “mean of change in PANSS-T” value (SNP_A-4212785 (PPP1R3B) genotype B_B) was −13.56. The “mean of change in PANSS-T” value (SNP_A-4212785 (PPP1R3B) genotype nonAA**) was −13.60, the “mean of change in PANSS-T” value (SNP_A-4230979 (ASB3) genotype A_A) was −6.70 and the “mean of change in PANSS-T” value (SNP_A-4230979 (ASB3) genotype A_B) was −8.77. The “mean of change in PANSS-T” value (SNP_A-4230979 (ASB3) genotype B_B**) was −18.82, the “mean of change in PANSS-T” value (SNP_A-4230979 (ASB3) genotype nonBB*) was −8.34 and the “mean of change in PANSS-T” value (SNP_A-4256833 (MLCK) genotype A_A) was −15.19. For the same molecule, the “mean of change in PANSS-T” value (SNP_A-4256833 (MLCK) genotype A_B*) was −6.20, the “mean of change in PANSS-T” value (SNP_A-4256833 (MLCK) genotype B_B) was −15.15 and the “mean of change in PANSS-T” value (SNP_A-4256833 (MLCK) genotype nonAB**) was −15.15. For the same molecule, the “mean of change in PANSS-T” value (SNP_A-4258279 (RRM1) genotype A_A) was −13.42, the “mean of change in PANSS-T” value (SNP_A-4258279 (RRM1) genotype A_B*) was −2.55 and the “mean of change in PANSS-T” value (SNP_A-4258279 (RRM1) genotype B_B) was −14.72. The “mean of change in PANSS-T” value (SNP_A-4258279 (RRM1) genotype nonAB**) was −14.70.
